Patent EP1438962A1, “DRUGS COMPRISING COMBINATION OF TRIAZASPIRO 5,5 U NDECANE DERIVATIVE WITH CYTOCHROME P450 ISOZYME 3A4 INHIBITOR AND/OR P−GLYCOPROTEIN INHIBITOR” (ONO PHARMACEUTICAL CO., LTD., priority 2001, dated 2003)
Where two headings read alike, the source gives them in different places. Blank lines part the entries; values can stand above or below the molecule they belong to.

Legend:
CYP 3A4 = assay: Metabolic reaction in pooled human liver microsome with or without the CYP 3A4 inhibitor ketoconazole; assay type: in vitro ADME; details: 1 µmol/L test compound, 37°C, after 60 minutes; for Residual rate (%) Ketoconazole (+): ketoconazole 1 µmol/L; for Residual rate (%) Ketoconazole (-): without ketoconazole
Description: Metabolic reaction of a test compound in pooled human liver microsome (Zenotec) in the presence of a specific inhibitor for each CYP molecular species was investigated and the CYP molecular species participating in the metabolism was estimated from the effect of each inhibitor.
The following inhibitors were used as the specific inhibitors for CYP molecular species:
A mixed solution containing 100 mmol/L of a phosphate buffer (pH 7.4), 0.05 mmol/L disodium ethylenediaminetetraacetate, 5 mmol /L magnesium chloride, 1 µmol/L of a test compound, 0.2 mg/L of human liver microsome (8 mg/L only for the measurement of a metabolism inhibiting rate by CYP 2C19) and each inhibitor (each of the numerals being the final concentration) was pre-incubated at 37°C, and then 2 mmol/L NADPH was added thereto to start the reaction. Immediately thereafter and after 60 minutes, 100 µL. of the sample was collected. The collected sample was immediately added to 2 mL of diethyl ether containing 400 µL of distilled water and 0.1 µg/L of an internal standard substance, followed by stirring, and the reaction was stopped. After a centrifugal treatment (2,000 rpm for 3 minutes), diethyl ether which was an upper layer was collected and dried in vacuo. The residue was dissolved in 150 µL of 0.01% TFA-80% acetonitrile and 40 µL thereof was subjected to a measurement. In this test, no quantitative determination was conducted but the residual rate to the concentration of the compound immediately after starting the reaction was determined from the area ratio in liquid chromatography/tandem mass analysis (LC/MS/MS) chromatogram.

[1] = Plasma concentration after intravenous administration in rat in the presence of CYP 3A4 inhibitor; assay type: in vivo; details: male SD rats, test compound 3 mg/kg intravenously; for AUC increase in the presence of ketoconazole versus absence: ketoconazole 50 mg/kg intraperitoneally; for AUC at 4 h: rat, in vivo, iv, 3 mg/kg
Description: Ketoconazole (50 mg/kg), an inhibitor against CYP 3A4, was intraperitoneally administered to male SD rats. One hour thereafter, the test compound (3 mg/kg) was intravenously administered. After 2, 5, 15, 30, 60, 120 and 240 minutes from the administration of the test compound, blood was collected from the rat jugular vein and centrifuged at 3,000 rpm for 10 minutes to obtain plasma. To 150 µL of the resulting plasma were added 5 ng of 2-[4-[4-(2-methoxyphenyl)-1-piperazinyl]butylamino]-5-ethoxycarbonyl-4,6-dimethylpyrimidine trihydrochloride as an internal standard, proteins were removed therefrom using ethanol and a plasma concentration of the test compound was measured by high-performance liquid chromatography. From the resulting plasma concentration of the test compound, the area under the curve of plasma concentration vs. time (AUC, µg·min/mL) was calculated.

[2] = test system: Human MDR1 expressed cells (LLC-GA-5-COL 150); assay: Membrane permeability of P-gp expression cells; assay type: in vitro ADME; details: COL 150 cells, CsA (-), compound 10 µM
Description: (§1) Human MDR1 expressed cells (LLC-GA-5-COL 150) and parent cells thereof (LLC-PK 1) were incubated until arriving confluent in a 12-well transwell plate to prepare a single-layer membrane. Compound 75(54) was adjusted to 10 µM using a buffer for the measurement (M 199, 26.2 mM NaHCO3, 10% FBS, 0.03% L-glutamine; pH 7.4). In measuring the membrane permeability from lumen to blood vessel, the drug solution was loaded to the lumen while, in measuring the membrane permeability from blood vessel to lumen, it was loaded to the blood vessel and incubation was carried out under conditions at 37°C, 5% CO2 and relative humidity of 90%. After a certain period, the sample solution was collected and, in order to keep each volume, a buffer for the measurement was supplemented to an extent of the collected volume. Similarly, membrane permeability of Compound 75(54) was observed as well in the presence of cyclosporine A (abbreviated as CsA; final concentration: 10 µM) which is an inhibitor for P-gp. The measurement was carried out 3 times. All samples were evaluated by means of LS/MS/MS.

[3] = test system: parent cells thereof (LLC-PK 1); assay: Membrane permeability of parent cells; assay type: in vitro ADME; details: PK 1 cells, CsA (-), compound 10 µM
Description: as §1

Caco-2 cells = assay: Permeability of Caco-2 in the presence of P-gp inhibitor; assay type: in vitro ADME; details: drug 10 µM
Description: Caco-2 cells were incubated in a 12-well transwell place on a collagen-coated porous polycarbonate membrane until arriving confluent to prepare a single-layer membrane of Caco-2 cells. The single-layer membrane was preincubated for 30 minutes in a buffer for the measurement (a Hanks buffer containing 10 mM HEPES and 15 mM glucose; pH 7.0 ± 0.2) to which d-α-tocopheryl polyethylene glycol 1000 succinate, a P-gp inhibitor, was added. The drug concentration was adjusted to 10 µM by a buffer for the measurement. In measuring the membrane permeability from lumen to blood vessel, the drug solution was loaded to the lumen while, in measuring the membrane permeability from blood vessel to lumen, it was loaded to the blood vessel and incubation was carried out under conditions at 37°C, 5% CO2 and relative humidity of 90%. After 1 and 2 hours from the administration of the drug, 200 µL of the buffer for the measurement containing the drug solution were recovered and substituted with a new buffer for the measurement. The measurement was carried out 2 times. Membrane permeability in a cell-free state was measured and used as a blank. As a control, permeability of Lucifer Yellow was measured. All samples were evaluated by LC/MS. A permeation coefficient (Papp) was calculated according to the following equation. Papp = (dc / dt) • Vr / (A • C0 ) [formula]
In the equation, dc/dt is a permeation rate after lag time; Vr is a volume of the solution at the side of a donor; A is a surface area; and C0 is the initial concentration of the solution at the side of the donor.

[4] = Plasma concentration upon oral administration to rats in the presence of CYP 3A4 inhibitor; assay type: in vivo; details: male SD rats, test compound 30 mg/kg orally, ketoconazole 50 mg/kg intraperitoneally one hour before
Description: Ketoconazole (50 mg/kg), a CYP 3A4 inhibitor, was intraperitoneally administered to male SD rats. One hour thereafter, 30 mg/kg of the test compound was orally administered. After 15, 30, 60, 120, 240 and 360 minutes from administration of the test compound, blood was collected from the rat jugular vein and centrifuged at 3,000 rpm for 10 minutes to give plasma. To 150 µL of the resulting plasma were added 5 ng of 2-[4-[4-(2-methoxyphenyl)-1-piperazinyl]butyl-amino]-5-ethoxycarbonyl-4,6-dimethylpyrimidine trihydrochloride, proteins were removed therefrom using ethanol and plasma concentration of the test compound was measured by high-performance liquid chromatography. From the concentration of the test compound in the resulting plasma, the area under curve of plasma concentration vs. time (AUC, µg•min/mL) was calculated.

[5] = Plasma concentration upon oral administration to rats in the presence of an HIV protease inhibitor; assay type: in vivo; details: male SD rats
Description: Amprenavir, nelfinavir, ritonavir or saquinavir (10 mg/kg) which is an HIV protease inhibitor and 10 mg/kg of the test compound were orally administered to male SD rats at the same time. After 15, 30, 60, 120, 240 and 360 minutes from the administration of the test compound, blood was collected from the rat jugular vein and centrifuged at 3,000 rpm for 10 minutes to give plasma. To 200 µL of the resulting plasma were added 50 ng of (3S)-1-butyl-2,5-dioxo-3-(2-methylpropyl)-9-)4-phenyloxyphenylmethyl)-1,4,9-triazaspiro[5.5]undecane as an internal standard. To this were added 300 µL of distilled water and 2,000 µL of diethyl ether, followed by well stirring, and the diethyl ether layer recovered therefrom was dried in vacuo. The dried substance was dissolved in 150 µL of a 50% acetonitrile solution containing 0.005% trifluoroacetic acid and subjected to a liquid chromatography/tandem mass analysis (LC/MS/MS) method to measure a plasma concentration of the test compound. From the concentration of the test compound in the resulting plasma, the area under curve of plasma concentration vs. time (AUC, µg·min/mL) was calculated.

Residual rate (%) Ketoconazole (+) (CYP 3A4): 89.1%
Residual rate (%) Ketoconazole (-) (CYP 3A4): 32.1%
AUC increase in the presence of ketoconazole versus absence [1]: about 4 times
AUC at 4 h ([1]; ketoconazole 50 mg/kg intraperitoneally one hour before, read-out: AUC in the presence of ketoconazole (converted)): 4350 ng·h/mL
AUC at 4 h ([1]; no ketoconazole, read-out: AUC in the absence of ketoconazole (converted)): 1020 ng·h/mL
Structure (SMILES): CCCCN1C(=O)C(CC(C)C)NC(=O)C12CCN(Cc1c(C)nn(-c3ccccc3)c1C)CC2 (stereo not shown) [Compound 3(1)]

Residual rate (%) Ketoconazole (+) (CYP 3A4): 114.4%
Residual rate (%) Ketoconazole (-) (CYP 3A4): 19.4%
Structure (SMILES): CCCCN1C(=O)[C@@H]([C@H](O)C2CCCCC2)NC(=O)C12CCN(Cc1c(C)nn(-c3ccc(C(=O)NC)cc3)c1C)CC2 [Compound 75(53), (3R)-1-butyl-2,5-dioxo-3-((1R)-1-hydroxy-1-cyctohexylmethyl)-9-(3,5-dimethyl-1-(4-methylaminocarbonylphenyl)pyrazol-4-ylmethyl)-1,4,9-triazaspiro[5.5]undecane]

Residual rate (%) Ketoconazole (+) (CYP 3A4): 104.0%
Residual rate (%) Ketoconazole (-) (CYP 3A4): 28.2%
Structure (SMILES): CCCCN1C(=O)[C@H](CC2CCCCC2)NC(=O)C12CCN(Cc1ccc(Oc3ccc(C(=O)O)cc3)cc1)CC2 [Compound 40(70), (3S)-1-butyl-2,5-dioxo-3-cyclohexylmethyl-9-(4-(4-carboxyphenyloxy)phenylmethyl)-1,4,9-triazaspiro[5.5]undecane]

Structure (SMILES): CCCCN1C(=O)[C@@H]([C@H](O)C2CCCCC2)NC(=O)C12CCN(Cc1ccc(Oc3ccc(C(=O)O)cc3)cc1)CC2 [Compound 75(54), (3R)-1-butyl-2,5-dioxo-3-((1R)-1-hydroxy-1-cyclohexylmethyl)-9-(4-(4-carboxyphenyloxy)phenylmethyl)-1,4,9-triazaspiro[5.5]undecane]
Residual rate (%) Ketoconazole (+) (CYP 3A4): 95.3%
Residual rate (%) Ketoconazole (-) (CYP 3A4): 34.4%
AUC increase in the presence of ketoconazole versus absence [1]: about 3 times
Permeability From blood vessel to lumen [2]: 34.3 µL/cm^2/hr
Permeability From lumen to blood vessel [2]: 2.06 µL/cm^2/hr
Permeability From blood vessel to lumen [3]: 18.8 µL/cm^2/hr
Permeability From lumen to blood vessel [3]: 35.3 µL/cm^2/hr
Permeation Coefficient From blood vessel to lumen (Caco-2 cells; Caco-2, 0.025% TPGS (+)): 13 cm/s
Permeation Coefficient From lumen to blood vessel (Caco-2 cells; Caco-2, 0.025% TPGS (+)): 10.5 cm/s
Permeation Coefficient From blood vessel to lumen (Caco-2 cells; Caco-2, 0.025% TPGS (-)): 32.4 cm/s
Permeation Coefficient From lumen to blood vessel (Caco-2 cells; Caco-2, 0.025% TPGS (-)): 3.42 cm/s
AUC increase in the presence of ketoconazole versus absence [4]: 10 times
AUC increase in the presence of amprenavir versus absence ([5]; test compound 10 mg/kg and amprenavir 10 mg/kg orally at the same time): 3.7 times
AUC increase in the presence of nelfinavir versus absence ([5]; test compound 10 mg/kg and nelfinavir 10 mg/kg orally at the same time): 3.4 times
AUC increase in the presence of ritonavir versus absence ([5]; test compound 10 mg/kg and ritonavir 10 mg/kg orally at the same time): 7.7 times
AUC increase in the presence of saquinavir versus absence ([5]; test compound 10 mg/kg and saquinavir 10 mg/kg orally at the same time): 1.7 times
